Laboratory results from ChEMBL document CHEMBL1201862, “PubChem BioAssay data set” (2004).
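Briefly, cells in 96-well plates were exposed to five compound concentrations for 48 h, and endpoints were estimated by linear interpolation. GI50: concentration for 50% inhibition of growth.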 The source made the active and inactive calls. Rule as the data show it: active = GI50 up to about 1.1 µM and inactive = higher.

Key:
Test in all cases: growth of human tumour cells (NCI), 48 h
SK-MEL-5 = tested on: SK-MEL-5
IGROV-1 = tested on: IGROV-1
SW-620 = tested on: SW-620
UACC-257 = tested on: UACC-257
SNB-75 = tested on: SNB-75
HOP-92 = tested on: HOP-92
MDA-MB-435 = tested on: MDA-MB-435
EKVX = tested on: EKVX
ACHN = tested on: ACHN
NCI-H460 = tested on: NCI-H460
PC-3 = tested on: PC-3
CAKI-1 = tested on: CAKI-1
HCC 2998 = tested on: HCC 2998
HCT-116 = tested on: HCT-116
Hs-578T = tested on: Hs-578T
M14 = tested on: M14
SK-MEL-28 = tested on: SK-MEL-28
T47D = tested on: T47D
A549 = tested on: A549
OVCAR-3 = tested on: OVCAR-3

SMILES | GI50 (SK-MEL-5) | GI50 (IGROV-1) | GI50 (SW-620) | GI50 (UACC-257) | GI50 (SNB-75) | GI50 (HOP-92) | GI50 (MDA-MB-435) | GI50 (EKVX) | GI50 (ACHN) | GI50 (NCI-H460) | GI50 (PC-3) | GI50 (CAKI-1) | GI50 (HCC 2998) | GI50 (HCT-116) | GI50 (Hs-578T) | GI50 (M14) | GI50 (SK-MEL-28) | GI50 (T47D) | GI50 (A549) | GI50 (OVCAR-3)
NC(=O)NC(CC(=O)O)C(=O)O (configuration not stated) | > 100 µM (inactive) | > 100 µM (inactive) | > 100 µM (inactive) | 93.3 µM (inactive) | > 100 µM (inactive) | > 100 µM (inactive) | > 100 µM (inactive) | > 100 µM (inactive) | > 100 µM (inactive) | > 100 µM (inactive) | > 100 µM (inactive) | > 100 µM (inactive) | > 100 µM (inactive) | > 100 µM (inactive) | > 100 µM (inactive) | > 100 µM (inactive) | > 100 µM (inactive) | > 100 µM (inactive) | > 100 µM (inactive) | > 100 µM (inactive)
O=C1Nc2ccccc2/C1=N\c1cccc2ncccc12 | 67 µM (inactive) | 51.1 µM (inactive) | > 100 µM (inactive) | 41 µM (inactive) | 94.8 µM (inactive) | 42.5 µM (inactive) | 20 µM (inactive) | 19.1 µM (inactive) | > 100 µM (inactive) | 69.7 µM (inactive) | > 100 µM (inactive) | > 100 µM (inactive) | – | 58.7 µM (inactive) | 39.1 µM (inactive) | > 100 µM (inactive) | > 100 µM (inactive) | > 100 µM (inactive) | 81.5 µM (inactive) | 63.7 µM (inactive)
CCOC(=O)C(NC(=O)c1ccccc1)(Nc1ccc(S(=O)(=O)Nc2nc(C)cc(C)n2)cc1)C(F)(F)F (configuration not stated) | > 100 µM (inactive) | > 100 µM (inactive) | > 100 µM (inactive) | > 100 µM (inactive) | > 100 µM (inactive) | > 100 µM (inactive) | > 100 µM (inactive) | > 100 µM (inactive) | > 100 µM (inactive) | > 100 µM (inactive) | > 100 µM (inactive) | > 100 µM (inactive) | > 100 µM (inactive) | > 100 µM (inactive) | > 100 µM (inactive) | > 100 µM (inactive) | > 100 µM (inactive) | > 100 µM (inactive) | > 100 µM (inactive) | > 100 µM (inactive)
O=C1C=CC(=O)C(CNc2ccc(C(=O)OC34CC5CC(CC(C5)C3)C4)cc2)=C1Br | 9.31 µM (inactive) | 3.73 µM (inactive) | 18.2 µM (inactive) | 13.5 µM (inactive) | 6.15 µM (inactive) | 2.34 µM (inactive) | 14.7 µM (inactive) | 6.46 µM (inactive) | 14.6 µM (inactive) | 11.5 µM (inactive) | 4.76 µM (inactive) | 3.52 µM (inactive) | 12.4 µM (inactive) | 12.7 µM (inactive) | 6.35 µM (inactive) | 13.4 µM (inactive) | – | 3.33 µM (inactive) | 13.3 µM (inactive) | 13.5 µM (inactive)
CCOC(=O)C#Cc1cccc(C#CC(=O)OCC)c1 | 4.25 µM (inactive) | 18.2 µM (inactive) | 5.25 µM (inactive) | 10.2 µM (inactive) | 0.0248 µM (active) | 5.87 µM (inactive) | 4.59 µM (inactive) | 1.14 µM (inactive) | 6.03 µM (inactive) | 11.1 µM (inactive) | 6.21 µM (inactive) | 4.93 µM (inactive) | 0.624 µM (active) | 2.37 µM (inactive) | 9.55 µM (inactive) | 2.13 µM (inactive) | 5.33 µM (inactive) | 42.3 µM (inactive) | 6.53 µM (inactive) | 6.07 µM (inactive)
COC(=O)CCC(=O)NC1=C(Nc2ccc(OC)cc2)C(=O)c2ccccc2C1=O | 1.83 µM (inactive) | 11.9 µM (inactive) | 15.3 µM (inactive) | 4.61 µM (inactive) | 2.52 µM (inactive) | 8.69 µM (inactive) | 2 µM (inactive) | 17.7 µM (inactive) | 15.4 µM (inactive) | 7.21 µM (inactive) | 9.66 µM (inactive) | 16.9 µM (inactive) | 20.1 µM (inactive) | 6.58 µM (inactive) | 20.8 µM (inactive) | 7.26 µM (inactive) | 17.2 µM (inactive) | 14.6 µM (inactive) | 14 µM (inactive) | 3.18 µM (inactive)
CCCC(=O)Nc1cn(COC)c(C(=O)N2C[C@@H]3C[C@]34C2=CC(=O)c2[nH]cc(C)c24)n1 | 4.36 µM (inactive) | 9.25 µM (inactive) | 5.58 µM (inactive) | 8.13 µM (inactive) | 10.2 µM (inactive) | 9.31 µM (inactive) | 9.23 µM (inactive) | > 5 µM (inactive) | 3.26 µM (inactive) | 4.79 µM (inactive) | 6.81 µM (inactive) | 1.91 µM (inactive) | 5.31 µM (inactive) | 7.21 µM (inactive) | 15.1 µM (inactive) | 13.4 µM (inactive) | 14.5 µM (inactive) | 4.85 µM (inactive) | 10.8 µM (inactive) | 10.3 µM (inactive)
COc1ccc(N2C(=O)C3c4[nH]c5ccc(C)cc5c4C4CCC(C(C)C)CC4C3C2=O)cc1 (configuration not stated) | > 100 µM (inactive) | > 100 µM (inactive) | > 100 µM (inactive) | > 100 µM (inactive) | 27.7 µM (inactive) | > 100 µM (inactive) | > 100 µM (inactive) | > 100 µM (inactive) | > 100 µM (inactive) | > 100 µM (inactive) | > 100 µM (inactive) | > 100 µM (inactive) | > 100 µM (inactive) | > 100 µM (inactive) | 57.8 µM (inactive) | > 100 µM (inactive) | > 100 µM (inactive) | > 100 µM (inactive) | > 100 µM (inactive) | > 100 µM (inactive)
COc1ccc2c(c1)[nH]c1c3ccc(OC)cc3oc(=O)c21 | > 100 µM (inactive) | > 100 µM (inactive) | > 100 µM (inactive) | > 100 µM (inactive) | 25.1 µM (inactive) | > 100 µM (inactive) | 0.91 µM (active) | > 100 µM (inactive) | > 100 µM (inactive) | > 100 µM (inactive) | > 100 µM (inactive) | > 100 µM (inactive) | > 100 µM (inactive) | > 100 µM (inactive) | 55.2 µM (inactive) | > 100 µM (inactive) | > 100 µM (inactive) | > 100 µM (inactive) | > 100 µM (inactive) | > 100 µM (inactive)
Oc1ccc(Oc2cc3c(cc2Oc2ccc(O)cc2)-c2nc-3nc3[nH]c(nc4nc(nc5[nH]c(n2)c2cc(Oc6ccc(O)cc6)c(Oc6ccc(O)cc6)cc52)-c2cc(Oc5ccc(O)cc5)c(Oc5ccc(O)cc5)cc2-4)c2cc(Oc4ccc(O)cc4)c(Oc4ccc(O)cc4)cc32)cc1 | 60.1 µM (inactive) | > 100 µM (inactive) | > 100 µM (inactive) | > 100 µM (inactive) | > 100 µM (inactive) | > 100 µM (inactive) | > 100 µM (inactive) | > 100 µM (inactive) | > 100 µM (inactive) | > 100 µM (inactive) | > 100 µM (inactive) | > 100 µM (inactive) | > 100 µM (inactive) | > 100 µM (inactive) | > 100 µM (inactive) | 16.7 µM (inactive) | > 100 µM (inactive) | > 100 µM (inactive) | > 100 µM (inactive) | > 100 µM (inactive)
COC(=O)c1c(O)ccc2c1c1c(n2Cc2ccc(OC)cc2)C(=O)c2ccccc2C1=O | – | 6.21 µM (inactive) | 18.6 µM (inactive) | 26.3 µM (inactive) | 15.1 µM (inactive) | 10.5 µM (inactive) | 6.46 µM (inactive) | 35.3 µM (inactive) | 2.62 µM (inactive) | 3.75 µM (inactive) | 5.2 µM (inactive) | 29.4 µM (inactive) | 2.97 µM (inactive) | 6.3 µM (inactive) | 13.9 µM (inactive) | 10.7 µM (inactive) | 17.9 µM (inactive) | 6.78 µM (inactive) | 4.91 µM (inactive) | 16.1 µM (inactive)
O=C1CC2CC(CC3(CO3)C2)C1F (configuration not stated) | > 100 µM (inactive) | > 100 µM (inactive) | – | > 100 µM (inactive) | 48.2 µM (inactive) | 23 µM (inactive) | > 100 µM (inactive) | > 100 µM (inactive) | > 100 µM (inactive) | > 100 µM (inactive) | > 100 µM (inactive) | > 100 µM (inactive) | > 100 µM (inactive) | > 100 µM (inactive) | > 100 µM (inactive) | > 100 µM (inactive) | > 100 µM (inactive) | > 100 µM (inactive) | > 100 µM (inactive) | –
O=C1C(c2ccccc2)=[N+]([O-])c2ccccc21 | 11.1 µM (inactive) | – | 5.83 µM (inactive) | 13.3 µM (inactive) | 17 µM (inactive) | 6.79 µM (inactive) | 3.37 µM (inactive) | 15.1 µM (inactive) | 19.2 µM (inactive) | 16.5 µM (inactive) | 11.6 µM (inactive) | – | 20 µM (inactive) | 5.78 µM (inactive) | 29.8 µM (inactive) | 12.4 µM (inactive) | 17.1 µM (inactive) | 1.97 µM (inactive) | 19.9 µM (inactive) | 13.6 µM (inactive)
O=C(O)/C=C/C=C/c1ccc2c(c1)OCO2 [PIPERIC ACID] | 94.4 µM (inactive) | > 100 µM (inactive) | > 100 µM (inactive) | > 100 µM (inactive) | 36.6 µM (inactive) | > 100 µM (inactive) | > 100 µM (inactive) | > 100 µM (inactive) | > 100 µM (inactive) | > 100 µM (inactive) | > 100 µM (inactive) | > 100 µM (inactive) | – | > 100 µM (inactive) | 82.6 µM (inactive) | > 100 µM (inactive) | > 100 µM (inactive) | > 100 µM (inactive) | > 100 µM (inactive) | > 100 µM (inactive)
